{"source": "the supplement of paper PMC10307832", "assay_in_all_cases": "relative viability (nuclei count vs DMSO), 5 days (fraction); higher = more cells survive", "key": {"NCI-H1792": {"system": "NCI-H1792", "method_in_brief": "(§1)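 Relative viability is defined as nuclei in treated wells over nuclei in vehicle wells. Duplicate plates were run and medians reported. Lung cancer cell lines in 1536-well plates were dosed by pin tool one day after seeding, with one drug or with a fixed anchor-drug dose plus five library-drug doses (not always all listed) in √10 steps, and nuclei were counted after 5 days.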"}, "LCLC-103H": {"system": "LCLC-103H", "method_in_brief": "as §1"}, "201T": {"system": "201T", "method_in_brief": "as §1"}, "RERF-LC-KJ": {"system": "RERF-LC-KJ", "method_in_brief": "as §1"}, "NCI-H23": {"system": "NCI-H23", "method_in_brief": "as §1"}, "NCI-H322M": {"system": "NCI-H322M", "method_in_brief": "as §1"}, "HCC-15": {"system": "HCC-15", "method_in_brief": "as §1"}, "LK-2": {"system": "LK-2", "method_in_brief": "as §1"}, "LXF-289": {"system": "LXF-289", "method_in_brief": "as §1"}, "CAL-12T": {"system": "CAL-12T", "method_in_brief": "as §1"}, "COR-L 105": {"system": "COR-L 105", "method_in_brief": "as §1"}, "H3255": {"system": "H3255", "method_in_brief": "as §1"}, "BEN": {"system": "BEN", "method_in_brief": "as §1"}, "NCI-H2228": {"system": "NCI-H2228", "method_in_brief": "as §1"}, "HARA": {"system": "HARA", "method_in_brief": "as §1"}, "LC-2-ad": {"system": "LC-2-ad", "method_in_brief": "as §1"}, "HCC-827": {"system": "HCC-827", "method_in_brief": "as §1"}, "NCI-H1437": {"system": "NCI-H1437", "method_in_brief": "as §1"}, "NCI-H1651": {"system": "NCI-H1651", "method_in_brief": "as §1"}, "NCI-H2085": {"system": "NCI-H2085", "method_in_brief": "as §1"}, "UMC-11": {"system": "UMC-11", "method_in_brief": "as §1"}, "LU99A": {"system": "LU99A", "method_in_brief": "as §1"}, "NCI-H2405": {"system": "NCI-H2405", "method_in_brief": "as §1"}}}
{"molecule": "Cc1cnc(-c2cnc(NCCNc3ccc(C#N)cn3)nc2-c2ccc(Cl)cc2Cl)[nH]1", "note": "+ CC(=O)Nc1cccc(-n2c(=O)n(C3CC3)c(=O)c3c(Nc4ccc(I)cc4F)n(C)c(=O)c(C)c32)c1 [Trametinib] (partner 0.02 µM)", "values": [{"measurement": "relative viability", "setting": "NCI-H1792; first compound 0.08 µM", "result": 0.525}, {"measurement": "relative viability", "setting": "NCI-H1792; first compound 0.253 µM", "result": 0.437}, {"measurement": "relative viability", "setting": "NCI-H1792; first compound 0.8 µM", "result": 0.472}, {"measurement": "relative viability", "setting": "NCI-H1792; first compound 2.53 µM", "result": 0.349}, {"measurement": "relative viability", "setting": "LCLC-103H; first compound 0.08 µM", "result": 0.686}, {"measurement": "relative viability", "setting": "LCLC-103H; first compound 0.253 µM", "result": 0.676}, {"measurement": "relative viability", "setting": "LCLC-103H; first compound 0.8 µM", "result": 0.631}, {"measurement": "relative viability", "setting": "LCLC-103H; first compound 2.53 µM", "result": 0.671}, {"measurement": "relative viability", "setting": "201T; first compound 0.08 µM", "result": 0.746}, {"measurement": "relative viability", "setting": "201T; first compound 0.8 µM", "result": 0.707}, {"measurement": "relative viability", "setting": "201T; first compound 2.53 µM", "result": 0.753}, {"measurement": "relative viability", "setting": "RERF-LC-KJ; first compound 0.08 µM", "result": 0.951}, {"measurement": "relative viability", "setting": "RERF-LC-KJ; first compound 0.253 µM", "result": 0.847}, {"measurement": "relative viability", "setting": "RERF-LC-KJ; first compound 0.8 µM", "result": 0.832}, {"measurement": "relative viability", "setting": "RERF-LC-KJ; first compound 2.53 µM", "result": 0.771}, {"measurement": "relative viability", "setting": "NCI-H23; first compound 0.08 µM", "result": 0.412}, {"measurement": "relative viability", "setting": "NCI-H23; first compound 0.253 µM", "result": 0.339}, {"measurement": "relative viability", "setting": "NCI-H23; first compound 0.8 µM", "result": 0.451}, {"measurement": "relative viability", "setting": "NCI-H23; first compound 2.53 µM", "result": 0.882}, {"measurement": "relative viability", "setting": "NCI-H322M; first compound 0.08 µM", "result": 0.563}, {"measurement": "relative viability", "setting": "NCI-H322M; first compound 0.253 µM", "result": 0.558}, {"measurement": "relative viability", "setting": "NCI-H322M; first compound 0.8 µM", "result": 0.468}, {"measurement": "relative viability", "setting": "NCI-H322M; first compound 2.53 µM", "result": 0.516}, {"measurement": "relative viability", "setting": "HCC-15; first compound 0.08 µM", "result": 0.449}, {"measurement": "relative viability", "setting": "HCC-15; first compound 0.253 µM", "result": 0.391}, {"measurement": "relative viability", "setting": "HCC-15; first compound 0.8 µM", "result": 0.383}, {"measurement": "relative viability", "setting": "HCC-15; first compound 2.53 µM", "result": 0.422}, {"measurement": "relative viability", "setting": "LK-2; first compound 0.08 µM", "result": 0.834}, {"measurement": "relative viability", "setting": "LK-2; first compound 0.253 µM", "result": 0.833}, {"measurement": "relative viability", "setting": "LK-2; first compound 0.8 µM", "result": 0.841}, {"measurement": "relative viability", "setting": "LK-2; first compound 2.53 µM", "result": 0.955}, {"measurement": "relative viability", "setting": "LXF-289; first compound 0.08 µM", "result": 0.704}, {"measurement": "relative viability", "setting": "LXF-289; first compound 0.253 µM", "result": 0.6}, {"measurement": "relative viability", "setting": "LXF-289; first compound 0.8 µM", "result": 0.674}, {"measurement": "relative viability", "setting": "LXF-289; first compound 2.53 µM", "result": 0.69}, {"measurement": "relative viability", "setting": "CAL-12T; first compound 0.08 µM", "result": 0.357}, {"measurement": "relative viability", "setting": "CAL-12T; first compound 0.253 µM", "result": 0.306}, {"measurement": "relative viability", "setting": "CAL-12T; first compound 0.8 µM", "result": 0.333}, {"measurement": "relative viability", "setting": "CAL-12T; first compound 2.53 µM", "result": 0.348}, {"measurement": "relative viability", "setting": "COR-L 105; first compound 0.08 µM", "result": 0.481}, {"measurement": "relative viability", "setting": "COR-L 105; first compound 0.253 µM", "result": 0.383}, {"measurement": "relative viability", "setting": "COR-L 105; first compound 0.8 µM", "result": 0.324}, {"measurement": "relative viability", "setting": "COR-L 105; first compound 2.53 µM", "result": 0.415}, {"measurement": "relative viability", "setting": "H3255; first compound 0.08 µM", "result": 0.794}, {"measurement": "relative viability", "setting": "H3255; first compound 0.253 µM", "result": 0.583}, {"measurement": "relative viability", "setting": "H3255; first compound 0.8 µM", "result": 0.663}, {"measurement": "relative viability", "setting": "H3255; first compound 2.53 µM", "result": 0.668}, {"measurement": "relative viability", "setting": "BEN; first compound 0.08 µM", "result": 1.25}, {"measurement": "relative viability", "setting": "BEN; first compound 0.253 µM", "result": 0.879}, {"measurement": "relative viability", "setting": "BEN; first compound 0.8 µM", "result": 1.04}, {"measurement": "relative viability", "setting": "BEN; first compound 2.53 µM", "result": 1.42}, {"measurement": "relative viability", "setting": "NCI-H2228; first compound 0.08 µM", "result": 0.526}, {"measurement": "relative viability", "setting": "NCI-H2228; first compound 0.253 µM", "result": 0.511}, {"measurement": "relative viability", "setting": "NCI-H2228; first compound 0.8 µM", "result": 0.506}, {"measurement": "relative viability", "setting": "NCI-H2228; first compound 2.53 µM", "result": 0.42}, {"measurement": "relative viability", "setting": "HARA; first compound 0.08 µM", "result": 0.746}, {"measurement": "relative viability", "setting": "HARA; first compound 0.253 µM", "result": 0.68}, {"measurement": "relative viability", "setting": "HARA; first compound 0.8 µM", "result": 0.623}, {"measurement": "relative viability", "setting": "HARA; first compound 2.53 µM", "result": 0.708}, {"measurement": "relative viability", "setting": "LC-2-ad; first compound 0.08 µM", "result": 0.998}, {"measurement": "relative viability", "setting": "LC-2-ad; first compound 0.8 µM", "result": 0.953}, {"measurement": "relative viability", "setting": "LC-2-ad; first compound 2.53 µM", "result": 0.863}, {"measurement": "relative viability", "setting": "HCC-827; first compound 0.08 µM", "result": 0.597}, {"measurement": "relative viability", "setting": "HCC-827; first compound 0.253 µM", "result": 0.473}, {"measurement": "relative viability", "setting": "HCC-827; first compound 0.8 µM", "result": 0.522}, {"measurement": "relative viability", "setting": "HCC-827; first compound 2.53 µM", "result": 0.434}, {"measurement": "relative viability", "setting": "NCI-H1437; first compound 0.08 µM", "result": 0.677}, {"measurement": "relative viability", "setting": "NCI-H1437; first compound 0.253 µM", "result": 0.492}, {"measurement": "relative viability", "setting": "NCI-H1437; first compound 0.8 µM", "result": 0.489}, {"measurement": "relative viability", "setting": "NCI-H1437; first compound 2.53 µM", "result": 0.381}, {"measurement": "relative viability", "setting": "NCI-H1651; first compound 0.08 µM", "result": 0.855}, {"measurement": "relative viability", "setting": "NCI-H1651; first compound 0.253 µM", "result": 0.706}, {"measurement": "relative viability", "setting": "NCI-H1651; first compound 0.8 µM", "result": 0.74}, {"measurement": "relative viability", "setting": "NCI-H1651; first compound 2.53 µM", "result": 0.864}, {"measurement": "relative viability", "setting": "NCI-H2085; first compound 0.08 µM", "result": 0.596}, {"measurement": "relative viability", "setting": "NCI-H2085; first compound 0.253 µM", "result": 0.524}, {"measurement": "relative viability", "setting": "NCI-H2085; first compound 0.8 µM", "result": 0.52}, {"measurement": "relative viability", "setting": "NCI-H2085; first compound 2.53 µM", "result": 0.604}, {"measurement": "relative viability", "setting": "UMC-11; first compound 0.08 µM", "result": 0.891}, {"measurement": "relative viability", "setting": "UMC-11; first compound 0.253 µM", "result": 0.525}, {"measurement": "relative viability", "setting": "UMC-11; first compound 0.8 µM", "result": 0.377}, {"measurement": "relative viability", "setting": "UMC-11; first compound 2.53 µM", "result": 0.82}, {"measurement": "relative viability", "setting": "LU99A; first compound 0.08 µM", "result": 0.549}, {"measurement": "relative viability", "setting": "LU99A; first compound 0.253 µM", "result": 0.556}, {"measurement": "relative viability", "setting": "LU99A; first compound 0.8 µM", "result": 0.53}, {"measurement": "relative viability", "setting": "LU99A; first compound 2.53 µM", "result": 0.534}, {"measurement": "relative viability", "setting": "NCI-H2405; first compound 0.08 µM", "result": 0.755}, {"measurement": "relative viability", "setting": "NCI-H2405; first compound 0.253 µM", "result": 0.634}, {"measurement": "relative viability", "setting": "NCI-H2405; first compound 0.8 µM", "result": 0.611}, {"measurement": "relative viability", "setting": "NCI-H2405; first compound 2.53 µM", "result": 0.439}]}
